Assay results published in ChEMBL document CHEMBL4811256, “Synthesis and evaluation of multi-target-directed ligands with BACE-1 inhibitory and Nrf2 agonist activities as potential agents against Alzheimer's disease” (Eur J Med Chem, 2021).
pIC50: −log10 of the molar value. Activity calls are given as the source filed them. The calls are words filed in the database; no cut-off is given here.

Columns and labels:
in vitro = settings: PAMPA
PC-12 [1] = assay: Protection against 6-OHDA-induced ROS accumulation in rat PC-12 cells assessed as intracellular ROS level by measuring mean fluorescence intensity pretreated for 12 hrs followed by 6-OHDA challenge by DCFH-DA staining based flow cytometry; assay type: functional, cell-based; settings: dose 2.5-10 µM
PC-12 [2] = assay: Neuroprotective activity against H2O2-induced cell damage in rat PC-12 cells assessed as decrease in cell death at 10 uM pretreated for 12 hrs followed by H2O2 challenge by MTT assay; assay type: functional, cell-based
[3] = Glutathione peroxidase-like activity in pH 7.5 potassium phosphate buffer assessed as catalytic reduction of H2O2 by measuring initial velocity at 25 degreeC using GSH in presence of NADPH by UV absorbance analysis (reference value: 30.41+/- 2.06 microM/min); assay type: functional
PC-12 [4] = assay: Protection against H2O2-induced ROS accumulation in rat PC-12 cells assessed as intracellular ROS level by measuring mean fluorescence intensity pretreated for 12 hrs followed by H2O2 challenge by DCFH-DA staining based flow cytometry; assay type: functional, cell-based; settings: dose 2.5-10 µM
Beta-secretase 1 = Beta-secretase 1 (Homo sapiens, UniProt P56817); assay: Inhibition of BACE-1 (unknown origin) using Mca-Ser-Glu-Val-Asn-Leu-Asp-Ala-Glu-Phe-Lys-Dnp-OH as substrate preincubated for 30 mins followed by substrate addition and measured after 1 hr by FRET assay
Chain of Beta-secretase 1 (P56817 whole entry): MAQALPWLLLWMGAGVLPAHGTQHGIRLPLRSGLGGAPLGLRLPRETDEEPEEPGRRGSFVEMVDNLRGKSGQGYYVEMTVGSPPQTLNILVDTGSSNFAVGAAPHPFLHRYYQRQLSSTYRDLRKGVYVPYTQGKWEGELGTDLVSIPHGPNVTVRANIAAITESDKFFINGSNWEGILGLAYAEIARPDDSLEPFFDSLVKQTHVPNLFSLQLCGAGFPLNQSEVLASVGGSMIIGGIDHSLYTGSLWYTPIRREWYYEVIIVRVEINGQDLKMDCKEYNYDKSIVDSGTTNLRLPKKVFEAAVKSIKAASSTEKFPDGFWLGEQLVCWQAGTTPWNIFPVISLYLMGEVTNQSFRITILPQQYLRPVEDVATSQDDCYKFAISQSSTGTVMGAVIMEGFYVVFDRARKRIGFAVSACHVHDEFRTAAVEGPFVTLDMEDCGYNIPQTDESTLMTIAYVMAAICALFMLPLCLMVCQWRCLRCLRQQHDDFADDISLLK

PC-12 [5] = assay: Cytotoxicity against rat PC-12 cells at 25 uM incubated for 24 hrs by MTT assay; assay type: cell-based; settings: pc-12, 24 h
PC-12 [6] = assay: Cytoprotective activity against H2O2- induced cell death in rat PC-12 cells assessed as increase in viable cells pretreated for 12 hrs followed by H2O2 challenge by MTT assay; assay type: functional, cell-based; settings: dose 2.5-10 µM
HEK293 = assay: Inhibition of amyloid beta(1 to 40) secretion in human HEK293T cells transfected with human APP harboring Swedish double mutant K595N/M596L at 1 uM measured after 24 hrs by ELISA; assay type: functional, cell-based

Row | Compound | Activity (PC-12 [2]) | V0 [3] | pIC50 (Beta-secretase 1) | also measured
1 | CN1C(C(=O)Nc2ccccn2)=C(O)c2ccccc2S1(=O)=O [PIROXICAM] |  |  |  | Papp at 16 h (in vitro): 3.07 ×10⁻⁶ cm/s
2 | CN1C(N)=N[C@](C)(c2cc(NC(=O)c3ccc(F)cn3)ccc2F)CS1(=O)=O | Active | 29.4 µM/min |  | Activity (PC-12 [1]): inactive; Activity (PC-12 [4]): inactive
3 | CN1C(N)=N[C@](C)(c2cc(-n3[se]c4cc(C(F)(F)F)ccc4c3=O)ccc2F)CS1(=O)=O |  | 145 µM/min |  | 
4 | CN1C(N)=N[C@](C)(c2cc(-n3[se]c4c(F)cccc4c3=O)ccc2F)CS1(=O)=O |  | 242 µM/min |  | 
5 | CCn1cc(C(=O)O)c(=O)c2cc(F)c(N3CCNC(C)C3)c(F)c21 (configuration not stated) [LOMEFLOXACIN] |  |  |  | Papp at 16 h (in vitro): 2.59 ×10⁻⁶ cm/s
6 | Cc1cccc2c(=O)n(-c3ccc(F)c([C@]4(C)CS(=O)(=O)N(C)C(N)=N4)c3)[se]c12 |  | 217 µM/min |  | 
7 | CN1C(N)=N[C@](C)(c2cc(-n3[se]c4c(C(F)(F)F)cccc4c3=O)ccc2F)CS1(=O)=O |  | 180 µM/min |  | 
8 | CN1C(N)=N[C@](C)(c2cc(-n3[se]c4cc(F)c(F)cc4c3=O)ccc2F)CS1(=O)=O | Active | 163 µM/min | 5.95 | Activity (PC-12 [5]): Non-Toxic
9 | Clc1cccc(Cl)c1N=C1NCCN1 [CLONIDINE] |  |  |  | Papp at 16 h (in vitro): 7.36 ×10⁻⁶ cm/s
10 | COc1ccc2c(=O)n(-c3ccc(F)c([C@]4(C)CS(=O)(=O)N(C)C(N)=N4)c3)[se]c2c1 |  | 114 µM/min | 5.81 | 
11 | Cc1ccc2c(=O)n(-c3ccc(F)c([C@]4(C)CS(=O)(=O)N(C)C(N)=N4)c3)[se]c2c1 |  | 130 µM/min |  | 
12 | COc1ccc2[se]n(-c3ccc(F)c([C@]4(C)CS(=O)(=O)N(C)C(N)=N4)c3)c(=O)c2c1 | Active | 161 µM/min | 5.83 | Activity (PC-12 [5]): Non-Toxic
13 | CN1C(N)=N[C@](C)(c2cc(-n3[se]c4ccccc4c3=O)ccc2F)CS1(=O)=O | Active | 156 µM/min | 5.72 | Activity (PC-12 [5]): Non-Toxic
14 | C[C@]12CC[C@@H]3c4ccc(O)cc4CC[C@H]3[C@@H]1CC[C@@H]2O [ESTRADIOL] |  |  |  | Papp at 16 h (in vitro): 12.2 ×10⁻⁶ cm/s
15 | Cc1ccc2[se]n(-c3ccc(F)c([C@]4(C)CS(=O)(=O)N(C)C(N)=N4)c3)c(=O)c2c1 |  | 146 µM/min |  | 
16 | O=c1c2ccccc2[se]n1-c1ccccc1 | Active | 153 µM/min |  | Activity (PC-12 [1]): Dose-Dependent Effect; Activity (PC-12 [6]): Dose-Dependent Effect; inhibition (HEK293): inactive; Activity (PC-12 [4]): Dose-Dependent Effect
17 | CN1C(N)=N[C@](C)(c2cc(-n3[se]c4ccc(F)cc4c3=O)ccc2F)CS1(=O)=O | Active | 197 µM/min | 5.71 | Activity (PC-12 [5]): Non-Toxic
18 | CN1C(N)=N[C@](C)(c2cc(-n3[se]c4ccc(C(F)(F)F)cc4c3=O)ccc2F)CS1(=O)=O | Active | 185 µM/min | 5.80 | Activity (PC-12 [5]): Non-Toxic
